Values quoted from earlier work as cited in publication PMC5931107, “Clinical pharmacodynamic/exposure characterisation of the multikinase inhibitor ilorasertib (ABT-348) in a phase 1 dose-escalation trial” (British Journal of Cancer, 2018).

Test system: PDGFR-β
Design: method as in PMID 22935731
Conditions: PDGFR-β cellular phosphorylation, ligand stimulated; read-out: Cellular PD marker IC50 (95% confidence limits); cited from earlier work

Question: For `Nc1ncc(-c2cnn(CCO)c2)c2scc(-c3ccc(NC(=O)Nc4cccc(F)c4)cc3)c12` [ilorasertib, Ilorasertib], which IC50 is on record?
Answer: 0.011 µM
